Assay results as given in BindingDB's records for patent US20240335431 (Acerta Pharma, 2024).

The compounds below were run against T1, Menin (Homo sapiens, UniProt O00255) (assay: Fluorescence Polarization (FP) Assay).
T1 sequence (O00255 whole entry): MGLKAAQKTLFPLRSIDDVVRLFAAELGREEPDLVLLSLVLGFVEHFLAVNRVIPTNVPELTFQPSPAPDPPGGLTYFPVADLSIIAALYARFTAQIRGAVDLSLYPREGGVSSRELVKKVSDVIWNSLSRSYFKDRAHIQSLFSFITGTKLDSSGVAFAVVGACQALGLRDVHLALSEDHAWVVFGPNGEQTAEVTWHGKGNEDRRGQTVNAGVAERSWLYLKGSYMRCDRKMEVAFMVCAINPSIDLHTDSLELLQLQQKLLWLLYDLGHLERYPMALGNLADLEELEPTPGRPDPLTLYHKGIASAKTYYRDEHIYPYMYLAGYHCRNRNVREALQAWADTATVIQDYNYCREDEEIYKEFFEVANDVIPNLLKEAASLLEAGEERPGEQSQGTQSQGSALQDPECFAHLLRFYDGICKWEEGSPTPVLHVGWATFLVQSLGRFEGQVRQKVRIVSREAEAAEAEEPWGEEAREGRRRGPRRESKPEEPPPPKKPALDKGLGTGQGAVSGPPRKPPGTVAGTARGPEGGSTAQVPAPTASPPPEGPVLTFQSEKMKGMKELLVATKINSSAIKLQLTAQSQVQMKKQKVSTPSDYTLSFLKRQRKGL
Method: Compounds were tested in a biochemical binding assay using Menin protein at 2 nM (N6his-tev-Menin_4i80, PB-20-1459) and the substrate cRho110-Ahx-MBM1/MBM2 peptide (UbiQ, UbiQ-Q20201030; cRh110-Ahx-[…]-QRVPALLLPPG-NH2) at 1 nM.384 Low volume black plates (Corning #4514) were used. 5 μL/well compound or 3% DMSO was added at 10-fold serial dilutions in DMSO from 10 μM. 5 μL/well cRho110-Ahx-MBM1/MBM2 peptide or binding buffer (50 mM Tris pH 7.5, 50 mM NaCl, 1 mM TCEP, 0.01% BGG, 0.01% Brij-35) was added to all wells. 5 μL/well Menin protein or binding buffer (50 mM Tris pH 7.5, 50 mM NaCl, 1 mM TCEP, 0.01% BGG, 0.01% Brij-35) was added to all wells. Plates were read on an EnVision plate reader (Perkin Elmer) with excitation at 480 nm and emission at 535 nm P+S, and measured every 5 minutes for 180 minutes.
`CC(C)N(C(=O)c1cc(F)ccc1-n1cc(C(=O)C2CCN(C(=O)[C@H]3NC[C@@H]4CCC[C@@H]43)CC2)c2ccncc21)C(C)C` [US20240335431, Example 21] gave an IC50 of 16 nM. With `C[C@@H]1COC[C@H](C)N1C(=O)c1cc(F)ccc1-n1cc(C(=O)C2CCN(C(=O)[C@H]3N[C@@H]4CC[C@H]3C4)CC2)c2ccncc21` [US20240335431, Example 35] the IC50 was 97 nM. With `O=C(c1cn(-c2ccc(F)cc2-c2cncnc2C2CC2)c2cnccc12)C1CCN(C(=O)[C@H]2N[C@@H]3CC[C@H]2C3)CC1` [US20240335431, Example 40] the IC50 was 18 nM. For `CC(C)c1ncccc1-c1cc(F)ccc1-n1cc(C(=O)C2CCN(C(=O)[C@H]3N[C@@H]4CC[C@H]3C4)CC2)c2ccncc21` [US20240335431, Example 38], the IC50 was 13 nM. For `C[C@@H]1CC[C@H](C)N1C(=O)c1cc(F)ccc1-n1cc(C(=O)C2CCN(C(=O)[C@H]3N[C@@H]4CC[C@H]3C4)CC2)c2ccncc21` [US20240335431, Example 32], the IC50 was 36 nM. For `CC(C)c1cnccc1-c1cc(F)ccc1-n1cc(C(=O)C2CN(C(=O)[C@H]3N[C@@H]4CC[C@H]3C4)C2)c2ccncc21` [US20240335431, Example 11], the IC50 was 4 nM. Compound `CC(C)c1ncsc1-c1cc(F)ccc1-n1cc(C(=O)C2CN(C(=O)[C@H]3N[C@@H]4CC[C@H]3C4)C2)c2ccncc21` [US20240335431, Example 12] has an IC50 of 6 nM. Compound `CC(C)N(C(=O)c1cc(F)ccc1-n1cc(C(=O)[C@H]2CCN(C(=O)[C@H]3N[C@@H]4CC[C@H]3C4)C2)c2ccncc21)C(C)C` [US20240335431, Example 2] has an IC50 of 47 nM. Compound `Cc1c(C(=O)[C@@H]2CCN(C(=O)[C@@H]3CC[C@@H](C)N3)[C@@H](C)C2)c2ccncc2n1-c1ccc(F)cc1C(=O)N(C(C)C)C(C)C` [US20240335431, Example 64] has an IC50 of 84 nM. `CCN(C(=O)c1cc(F)ccc1-n1c(C)c(C(=O)[C@@H]2CCN(C(=O)[C@@H]3CCC4(CC4)N3)[C@@H](C)C2)c2ccncc21)C(C)C` (single isomer, unassigned; form 2) [US20240335431, Example 52-2] gave an IC50 of 18 nM. `C[C@@H]1CCC[C@H](C)N1C(=O)c1cc(F)ccc1-n1cc(C(=O)C2CCN(C(=O)[C@H]3N[C@@H]4CC[C@H]3C4)CC2)c2ccncc21` [US20240335431, Example 33] gave an IC50 of 37 nM. In the case of `CC(C)N(C(=O)c1cc(F)ccc1-n1cc(C(=O)[C@@H]2CCN(C(=O)[C@H]3N[C@@H]4CC[C@H]3C4)C2)c2ccncc21)C(C)C` [US20240335431, Example 3], the IC50 is reported as 25 nM. In the case of `CC(C)c1ncsc1-c1cc(F)ccc1-n1cc(C(=O)C2CCN(C(=O)[C@H]3N[C@@H]4CC[C@H]3C4)CC2)c2ccncc21` [US20240335431, Example 42], the IC50 is reported as 9 nM. `CC(C)N(C(=O)c1cc(F)ccc1-n1cc(C(=O)[C@H]2CCN(C[C@H]3CC[C@H](NS(C)(=O)=O)CC3)C2)c2ccncc21)C(C)C` [US20240335431, Example 1] was tested, and the IC50 was 29 nM. Compound `CCN(C(=O)c1cc(F)ccc1-n1c(C)c(C(=O)C2CCN(C(=O)[C@@H]3CCC4(CC4)N3)CC2)c2ccncc21)C(C)C` (single isomer, unassigned) [US20240335431, Example 49-1] has an IC50 of 2140 nM. With `CCN(C(=O)c1cc(F)ccc1-n1c(C)c(C(=O)[C@@H]2CCN(C(=O)[C@@H]3CC[C@H](C)N3)[C@@H](C)C2)c2ccncc21)C(C)C` [US20240335431, Example 63] the IC50 was 59 nM. Compound `CC(C)N(C(=O)c1cc(F)ccc1-n1cc(C(=O)C2CCN(C(=O)[C@H]3N[C@@H]4CC[C@H]3C4)CC2)c2c(F)cncc21)C(C)C` [US20240335431, Example 44] has an IC50 of 58 nM. Work on `Cc1c(C(=O)C2CCN(C(=O)[C@@H]3CC[C@H](C)N3)CC2)c2ccncc2n1-c1ccc(F)cc1C(=O)N(C(C)C)C(C)C` [US20240335431, Example 60] yielded an IC50 of 105 nM. Work on `CCN(C(=O)c1cc(F)ccc1-n1c(C)c(C(=O)C2CCN(C(=O)[C@H]3N[C@@H]4CC[C@H]3C4)CC2)c2ccncc21)C(C)C` [US20240335431, Example 46] yielded an IC50 of 34 nM. `Cc1c(C(=O)C2CCN(C(=O)[C@H]3NC[C@@H]4C[C@@H]43)CC2)c2ccncc2n1-c1ccc(F)cc1C(=O)N(CC(F)(F)F)C(C)C` (single isomer, unassigned) [US20240335431, Example 51-1] gave an IC50 of 778 nM. `CC(C)c1ncncc1-c1cc(F)ccc1-n1cc(C(=O)C2CCN(C(=O)[C@H]3N[C@@H]4CC[C@H]3C4)CC2)c2ccncc21` [US20240335431, Example 37] showed an IC50 of 9 nM. In the case of `CC(C)c1ccncc1-c1cc(F)ccc1-n1cc(C(=O)C2CCN(C(=O)[C@H]3N[C@@H]4CC[C@H]3C4)CC2)c2ccncc21` [US20240335431, Example 41], the IC50 is reported as 10 nM. For `CC(C)N(C(=O)c1cc(F)ccc1-n1cc(C(=O)C2CCN(C(=O)[C@H]3NC[C@@H]4C[C@@H]43)CC2)c2ccncc21)C(C)C` [US20240335431, Example 19], the IC50 was 16 nM. `Cc1c(C(=O)C2CCN(C(=O)[C@H]3NC[C@@H]4C[C@@H]43)CC2)c2ccncc2n1-c1ccc(F)cc1-c1cnccc1C(C)C` [US20240335431, Example 54] gave an IC50 of 15 nM. In the case of `CCN(C(=O)c1cc(F)ccc1-n1cc(C(=O)C2CN(C(=O)[C@H]3N[C@@H]4CC[C@H]3C4)C2)c2ccncc21)C(C)C` [US20240335431, Example 8], the IC50 is reported as 27 nM. `Cc1c(C(=O)C2CCN(C(=O)[C@@H]3CCC4(CC4)N3)CC2)c2ccncc2n1-c1ccc(F)cc1C(=O)N1[C@H](C)COC[C@H]1C` (single isomer, unassigned) [US20240335431, Example 58-1] was tested, and the IC50 was 351 nM. For `COCCN(C)CCC[C@H](C(C)C)N1CCC(C(=O)c2cn(-c3ccc(F)cc3C(=O)N(C(C)C)C(C)C)c3cnccc23)CC1` (racemic) [US20240335431, Example 23], the IC50 was 7 nM. For `CCN(C(=O)c1cc(F)ccc1-n1cc(C(=O)C2CCN(C(=O)[C@H]3N[C@@H]4CC[C@H]3C4)CC2)c2ccncc21)C(C)C` [US20240335431, Example 31], the IC50 was 10 nM. Work on `CC(C)n1nccc1-c1cc(F)ccc1-n1cc(C(=O)C2CCN(C(=O)[C@H]3N[C@@H]4CC[C@H]3C4)CC2)c2ccncc21` [US20240335431, Example 36] yielded an IC50 of 24 nM. Compound `CC(C)N(C(=O)c1cc(F)ccc1-n1cc(C(=O)C2CCN(C(=O)[C@H]3N[C@@H]4CC[C@H]3C4)CC2)c2ccncc21)C(C)C` [US20240335431, Example 16] has an IC50 of 21 nM. `CCN(C(=O)c1cc(F)ccc1-n1c(C)c(C(=O)C2CCN(C(=O)[C@@H]3CCC(C)(C)N3)CC2)c2ccncc21)C(C)C` (single isomer, unassigned) [US20240335431, Example 50-1] showed an IC50 of 5500 nM. Work on `CC(C)N(C(=O)c1cc(F)ccc1-n1cc(C(=O)C2CN(C(=O)[C@H]3N[C@@H]4CC[C@H]3C4)C2)c2ccnc(F)c21)C(C)C` [US20240335431, Example 15] yielded an IC50 of 17 nM. `Cc1c(C(=O)C2CCN(C(=O)[C@@H]3CCC(C)(C)N3)CC2)c2ccncc2n1-c1ccc(F)cc1C(=O)N(C(C)C)C(C)C` (single isomer, unassigned) [US20240335431, Example 56-1] gave an IC50 of 2150 nM. `Cc1c(C(=O)[C@@H]2CCN(C(=O)[C@@H]3CC[C@H](C)N3)[C@@H](C)C2)c2ccncc2n1-c1ccc(F)cc1C(=O)N(C(C)C)C(C)C` [US20240335431, Example 62] showed an IC50 of 76 nM. `CC(C)N(C(=O)c1cc(F)ccc1-n1cc(C(=O)C2CN(C(=O)[C@H]3NC4CCC3CC4)C2)c2ccncc21)C(C)C` [US20240335431, Example 6] was tested, and the IC50 was 42 nM. With `CC(C)N(C(=O)c1cc(F)ccc1-n1cc(C(=O)[C@@H]2CCCN(C(=O)[C@H]3N[C@@H]4CC[C@H]3C4)CC2)c2ccncc21)C(C)C` (relative stereo) [US20240335431, Example 45] the IC50 was 36 nM. With `CC(C)N(C(=O)c1cc(F)ccc1-n1cc(C(=O)[C@@H]2CCN(C[C@H]3CC[C@H](NS(C)(=O)=O)CC3)C2)c2ccncc21)C(C)C` [US20240335431, Example 4] the IC50 was 54 nM. In the case of `CC(C)c1ccccc1-c1cc(F)ccc1-n1cc(C(=O)C2CCN(C(=O)[C@H]3N[C@@H]4CC[C@H]3C4)CC2)c2ccncc21` [US20240335431, Example 39], the IC50 is reported as 7 nM. Work on `CC(C)c1ncccc1-c1cc(F)ccc1-n1cc(C(=O)C2CN(C(=O)[C@H]3N[C@@H]4CC[C@H]3C4)C2)c2ccncc21` [US20240335431, Example 10] yielded an IC50 of 4 nM. For `CCN(C(=O)c1cc(F)ccc1-n1c(C)c(C(=O)[C@@H]2CCN(C(=O)[C@@H]3CCC4(CC4)N3)[C@@H](C)C2)c2ccncc21)C(C)C` (single isomer, unassigned; form 1) [US20240335431, Example 52-1], the IC50 was 16 nM. Compound `CCN(C(=O)c1cc(F)ccc1-n1cc(C(=O)C2CN(C(=O)[C@H]3NC4CCC3CC4)C2)c2ccncc21)C(C)C` [US20240335431, Example 9] has an IC50 of 51 nM.
